Experimental data as given in patent US11730725B2 (Tesaro, Inc., priority 2017, dated 2023).
Like-named read-outs stand apart in the source and are kept apart here.

Columns and labels:
tumor models [1] = tested on: tumor models
tumor models [2] = test: animal or person; conditions: read-out: PARP inhibition
[3] = tested on: platinum-sensitive recurrent epithelial ovarian, fallopian tube, or primary peritoneal cancer; conditions: niraparib vs placebo
Description: All patients had received at least two prior platinum-containing regimens and were in response (complete or partial) to their most recent platinum-based regimen. Eligible patients were assigned to one of two cohorts based on the results of a germline BRCA mutation test. […] Randomization occurred within 8 weeks of the last dose of the most recent platinum-containing regimen. […] Clinic visits occurred each cycle (4 weeks±3 days). […] Prior to unblinding of the study, tumors of patients randomized to the non-gBRCAmut cohort were tested for the presence of homologous recombination deficiency (HRD) using the Myriad myChoice® HRD test, which evaluates three independent biomarkers of tumor genome instability: loss of heterozygosity, telomeric allelic imbalance, and large-scale state transitions. Tumors with homologous recombination deficiencies and those with somatic BRCA mutations were defined as HRD positive (HRDpos). The primary efficacy analysis for PFS was prospectively defined and assessed for the gBRCAmut cohort. The primary efficacy analysis for PFS was prospectively defined and assessed for the non-gBRCAmut cohort with a hierarchical testing schema. In the first step, PFS was assessed in the group of patients with HRDpos tumors and if significant, PFS was assessed in the overall non-gBRCAmut cohort. Secondary efficacy endpoints included chemotherapy-free interval (CFI), time to first subsequent therapy (TFST), PFS after the first subsequent therapy (PFS2), time to second subsequent therapy (TSST) and OS (overall survival).

[4] = drug substance, crystalline solid

| SMILES | tumor regression (tumor models [1]; 50 mg/kg, daily dosing) | tumor regression (tumor models [1]; dose of 75 mg/kg, same model) | tumor regression (tumor models [1]; dosing switched from 75 mg/kg to 50 mg/kg) | inhibition at 50 mg/kg (tumor models [2]) [%] | CFI HR ([3]; gBRCAmut cohort) | TFST HR ([3]; gBRCAmut cohort) | CFI HR ([3]; non-gBRCAmut cohort) | TFST HR ([3]; non-gBRCAmut cohort) | hygroscopicity [4] |
| --- | --- | --- | --- | --- | --- | --- | --- | --- | --- |
| NC(=O)c1cccc2cn(-c3ccc([C@@H]4CCCNC4)cc3)nc12 [Niraparib] | tumor regression | did not result in tumor regression | tumor regression was achieved | > 90 | 0.26 | 0.31 | 0.50 | 0.55 | – |
| Cc1ccc(S(=O)(=O)O)cc1.NC(=O)c1cccc2cn(-c3ccc([C@@H]4CCCNC4)cc3)nc12 [Niraparib tosylate monohydrate, 2-{4-[(3S)-piperidin-3-yl]phenyl}-2H-indazole 7-carboxamide 4-methylbenzenesulfonate hydrate (1:1:1)] | – | – | – | – | – | – | – | – | non-hygroscopic |
